Read-outs that look alike come from different tables or passages of the source.
What was measured:
[1] = Controlled cooling crystallisation: solubility in minimal solvent at 50 °C; format: physicochemical
Experimental: (detailed in the Table below). The solutions were clarified through a 0.45 μm Teflon syringe filter into pre-heated crystallisation tubes and cooled from 50° C. to −10° C. over 60 hours (1° C. Hr-1 cooling rate) and held at −10° C. for 50 hours (no agitation).
Solutions were clarified into crystallisation tubes at 50° C. and were cooled to −10° C. at a rate of 10° C.·hr-1, then equilibrated at −10° C. for 12 hours, then agitated at −10° C. at 400 rpm for 30 minutes which afforded a mobile suspension for all samples except Sample I which remained a solution. Further equilibration with agitation at −10° C. at 400 rpm for 3 hours afforded a thin suspension. All samples were isolated via isolute cartridge and air dried for 5 minutes before characterisation.

[2] = Competitive equilibration of Pattern A, B and C forms in solvents; format: physicochemical; details: suspension in 0.5 ml solvent agitated 24 hours; AB = Pattern A 15 mg + Pattern B 30 mg, AC = Pattern A 15 mg + Pattern C 30 mg; 1 IPA, 2 toluene, 3 iPrOAc, 4 MeCN, 5 MEK, 6 2-MeTHF
Experimental: Solvent, 0.5 ml, was charged to crystallisation tubes as detailed in the Table below. Suspensions were agitated at 100 rpm at […] for 24 hours. Suspensions were isolated via isolute cartridge and air dried for 5 minutes and characterised by XRPD and DSC.

[3] = tested on: Slugs (Arion lusitanicus); format: in vivo
Description: The Slug Mucosal Irritation (SMI) assay was initially developed at the Laboratory of Pharmaceutical Technology (UGent) to predict the mucosal irritation potency of pharmaceutical formulations and ingredients. The test utilizes the terrestrial slug Arion lusitanicus. The body wall of the slugs is a mucosal surface composed of different layers.
The outer single-layered columnar epithelium that contains cells with cilia, cells with micro-villi and mucus secreting cells covers the subepithelial connective tissue. Slugs that are placed on an irritating substance will produce mucus. Additionally tissue damage can be induced which results in the release of proteins and enzymes from the mucosal surface. […] A classification prediction model that distinguishes between irritation (mucus production) and tissue damage (release of proteins and enzymes) has been developed. […] A 5% shampoo dilution or artificial tears were instilled in the eye and the discomfort was scored by the participants on a 5 point scale during several time points up to 30 min after instillation. The same shampoos were tested in the SMI assay using the Stinging, Itching and Burning (SIB) protocol.
The purpose of this assay was to assess the stinging, itching or burning potential of the test item(s) defined below. Using the objective values obtained for the mucus production the stinging, itching or burning potential of the test item(s) can be estimated by means of the prediction model that is composed of four categories (no, mild, moderate and severe).
Test System: Slugs (Arion lusitanicus); 3 slugs per treatment group. The parental slugs of Arion lusitanicus collected in local gardens along Gent and Aalter (Belgium) are bred in the laboratory in an acclimatized room (18-20° C.). The slugs are housed in plastic containers and fed with lettuce, cucumber, carrots and commercial dog food.
Test Design: A single study was performed.
Slugs weighing between 3 and 6 g were isolated from the cultures two days before the start of an experiment. The body wall was inspected carefully for evidence of macroscopic injuries. […] The slugs were placed in a plastic box lined with paper towel moistened with PBS and were kept at 18-20° C. Daily the body wall of the slugs was wetted with 300 μl PBS using a micropipette.
An overview of this can be seen in FIG. 4.
The mucus production was expressed as % of the body weight.
Based on the endpoint of the SMI assay the stinging, itching or burning potency of the test item(s) was estimated using a classification prediction model.
The evaluation of the test results was based upon the total amount of mucus production during 3 repeated contact periods with the test item.
For each slug, the mucus production was expressed in % of the body weight by dividing the weight of the mucus produced during each contact period by the body weight of the slug before the start of that contact period. The total mucus was calculated for each slug and then the mean per treatment group was calculated. The classification prediction model shown in Table 1 was used to classify the compounds.

[4] = tested on: Slugs (Arion lusitanicus); experiment: SMI assay, historical data (30-min / 60-min contact periods); format: in vivo; details: for Total MP (% body weight): treatment time 60-min; for CP1 60-min, amount of mucus produced: Table 6; for CP1 60-min, amount of mucus produced / CP1 30-min, amount of mucus produced / CP2 30-min, amount of mucus produced / Day 1 CP1 60-min, amount of mucus produced / Day 2 CP2 60-min, amount of mucus produced / Total MP: historical data; for Ranking of salts by SIB reactions: comparison of 60-min historical data with SIB protocol data; for CP1 30-min, amount of mucus produced / CP2 30-min, amount of mucus produced: Table 4 (Code 00E04); for Day 1 CP1 60-min, amount of mucus produced / Day 2 CP2 60-min, amount of mucus produced: Table 5; for Day 1 CP1 60-min, amount of mucus produced: 1% in CP1; for Day 2 CP2 60-min, amount of mucus produced: 3.5% in CP2
[5] = Concentration 10%, treatment time 45-min (3× 15-min)
[6] = Table 2, stinging, itching and burning
[7] = Table 3, stinging, itching and burning

COc1ccc2[nH]cc(CCN(C)C)c2c1.O=C(O)c1ccccc1 [5MeODMT benzoate lot 20/20/150FP2]
Solubility mg · ml^−1 at ° C. ([1]; 2-Chlorotoluene, at 80 °C (suspension at 12.5 mg·ml-1 at 50 °C), cryst. tube K): 12.5 at 80 mg · ml^−1 | Solubility mg · ml^−1 at ° C. ([1]; 4-Methyl-2-pentanone, at 50 °C, cryst. tube H, minimal solvent for clear solution): 25 at 50 mg · ml^−1 | Solubility mg · ml^−1 at ° C. ([1]; Cumene, at 80 °C (suspension at 12.5 mg·ml-1 at 50 °C), cryst. tube I): 12.5 at 80 mg · ml^−1 | Solubility mg · ml^−1 at ° C. ([1]; Ethyl formate, at 50 °C, cryst. tube E, minimal solvent for clear solution): 40 at 50 mg · ml^−1 | Solubility mg · ml^−1 at ° C. ([1]; Iso-Butyl acetate, at 50 °C, cryst. tube D, minimal solvent for clear solution): 12.5 at 50 mg · ml^−1 | Solubility mg · ml^−1 at ° C. ([1]; Iso-Propyl acetate, at 50 °C, cryst. tube C, minimal solvent for clear solution): 16.7 at 50 mg · ml^−1 | Solubility mg · ml^−1 at ° C. ([1]; Methyl acetate, at 50 °C, cryst. tube A, minimal solvent for clear solution): 33.3 at 50 mg · ml^−1 | Solubility mg · ml^−1 at ° C. ([1]; Methyl benzoate, at 50 °C, cryst. tube F, minimal solvent for clear solution): 50 at 50 mg · ml^−1 | Solubility mg · ml^−1 at ° C. ([1]; Methyl propionate, at 50 °C, cryst. tube G, minimal solvent for clear solution): 40 at 50 mg · ml^−1 | Solubility mg · ml^−1 at ° C. ([1]; Toluene, at 80 °C (suspension at 12.5 mg·ml-1 at 50 °C), cryst. tube J): 12.5 at 80 mg · ml^−1 | Solubility mg · ml^−1 at ° C. ([1]; n-Propyl acetate, at 50 °C, cryst. tube B, minimal solvent for clear solution): 20 at 50 mg · ml^−1 | Solubility mg · ml^−1 at ° C. ([1]; α,α,α-Trifluorotoluene, at 80 °C (suspension at 12.5 mg·ml-1 at 50 °C), cryst. tube L): 12.5 at 80 mg · ml^−1

COc1ccc2[nH]cc(CCN(C)C)c2c1.O=C(O)c1ccccc1 [AB1]
Summary of solid form characterisation, DSC endotherm [2]: Endotherm at 124 °C | Summary of solid form characterisation, XRPD [2]: Pattern A

COc1ccc2[nH]cc(CCN(C)C)c2c1.O=C(O)c1ccccc1 [AB2]
Summary of solid form characterisation, DSC endotherm [2]: Endotherm at 122 °C | Summary of solid form characterisation, XRPD [2]: Pattern C

COc1ccc2[nH]cc(CCN(C)C)c2c1.O=C(O)c1ccccc1 [AB3]
Summary of solid form characterisation, XRPD [2]: Pattern A

COc1ccc2[nH]cc(CCN(C)C)c2c1.O=C(O)c1ccccc1 [AB4]
Summary of solid form characterisation, DSC endotherm [2]: Endotherm at 124 °C | Summary of solid form characterisation, XRPD [2]: Pattern A

COc1ccc2[nH]cc(CCN(C)C)c2c1.O=C(O)c1ccccc1 [AB5]
Summary of solid form characterisation, DSC endotherm [2]: Endotherm at 124 °C | Summary of solid form characterisation, XRPD [2]: Pattern A

COc1ccc2[nH]cc(CCN(C)C)c2c1.O=C(O)c1ccccc1 [AB6]
Summary of solid form characterisation, DSC endotherm [2]: Endotherm at 124 °C | Summary of solid form characterisation, XRPD [2]: Pattern A

COc1ccc2[nH]cc(CCN(C)C)c2c1.O=C(O)c1ccccc1 [AC1]
Summary of solid form characterisation, DSC endotherm [2]: Endotherm at 124 °C | Summary of solid form characterisation, XRPD [2]: Pattern A

COc1ccc2[nH]cc(CCN(C)C)c2c1.O=C(O)c1ccccc1 [AC2]
Summary of solid form characterisation, DSC endotherm [2]: Endotherm at 123 °C + | Summary of solid form characterisation, XRPD [2]: Pattern C

COc1ccc2[nH]cc(CCN(C)C)c2c1.O=C(O)c1ccccc1 [AC4]
Summary of solid form characterisation, DSC endotherm [2]: Endotherm at 124 °C | Summary of solid form characterisation, XRPD [2]: Pattern A

O=C([O-])/C=C/C(=O)[O-].[Na+].[Na+] [Disodium fumarate, 10%, Disodium fumarate]
Total MP (% body weight) [3, 5]: 13.3 % body weight | SIB Category [3, 6]: Moderate (Moderate: 10% ≤ total MP < 17.5%) | SIB Category [3, 7]: Moderate (Moderate: 10% ≤ total MP < 17.5%) | MP CP1 (%) ([3]; mucus produced, first 15-min contact period, mean ± SD, n = 3): 5.0 ± 2.5%

CC(=O)[O-].[Na+] [Sodium acetate, 10%, Sodium acetate]
SIB Category ([3]; in vivo): Moderate (key: No: total MP < 5.5%; Mild: 5.5% ≤ total MP < 10%; Moderate: 10% ≤ total MP < 17.5%; Severe: total MP ≥ 17.5%) | Total MP (% body weight) ([3]; in vivo): 11.0 % body weight

O=C([O-])c1ccccc1.[Na+] [Sodium benzoate]
Total MP (% body weight) ([4]; Concentration 1%): 2.6 % body weight | Total MP (% body weight) ([4]; Concentration 10%): 6.9 % body weight | CP1 60-min, amount of mucus produced ([4]; listed as Sodium benzoate (1%)): 2.6 ± 0.3 | CP1 60-min, amount of mucus produced ([4]; listed as Sodium benzoate (10%)): 6.9 ± 1.2 | Ranking of salts by SIB reactions [4]: least irritating salt

O=C([O-])CC(O)(CC(=O)[O-])C(=O)[O-].[Na+].[Na+].[Na+] [Sodium citrate, 10%, Sodium citrate]
Total MP (% body weight) [3, 5]: 12.5 % body weight | SIB Category [3, 6]: Moderate (Moderate: 10% ≤ total MP < 17.5%) | SIB Category [3, 7]: Moderate (Moderate: 10% ≤ total MP < 17.5%)

O=C([O-])C(=O)[O-].[Na+].[Na+] [Sodium oxalate]
Total MP (% body weight) ([4]; Concentration 1%): 11.2 % body weight | CP1 30-min, amount of mucus produced [4]: 4.5 ± 1.3 | CP2 30-min, amount of mucus produced [4]: 6.6 ± 1.0 | Day 1 CP1 60-min, amount of mucus produced [4]: 11.2 ± 3.9 | Day 2 CP2 60-min, amount of mucus produced [4]: 16.0 ± 4.0 | Ranking of salts by SIB reactions [4]: most irritating salt

O=P([O-])(O)O.[Na+] [Sodium phosphate, 10% monobasic, Sodium phosphate monobasic]
Total MP (% body weight) [3, 5]: 15.2 % body weight | SIB Category [3, 6]: Moderate (Moderate: 10% ≤ total MP < 17.5%) | SIB Category [3, 7]: Moderate (Moderate: 10% ≤ total MP < 17.5%)

Benzalkonium chloride [PC - 1% BAC]
CP1 30-min, amount of mucus produced [4]: 13.2 ± 4.2 | CP2 30-min, amount of mucus produced [4]: 18.6 ± 9.8 | Total MP ([4]; Table 4, 2 x 30-min contact periods): 31.8 ± 12.6 | Total MP ([4]; Table 5, 2 x 60-min contact periods): 31.6 ± 2.5 | Day 1 CP1 60-min, amount of mucus produced [4]: 21.9 ± 4.8 | Day 2 CP2 60-min, amount of mucus produced [4]: 9.7 ± 3.2 | CP1 60-min, amount of mucus produced [4]: 15.0 ± 1.9
